Results taken from patent publication US9708286B2, “Ingenol-3-acylates III and ingenol-3-carbamates” (LEO Laboratories Limited, priority 2010, dated 2017).

How the values were obtained:
Assay type in all cases: cell-based
[1] = tested on: PMN's (polymorphonuclear leukocytes); assay: Neutrophil oxidative burst; settings: Leukocyte, 40 min, read-out: Neutrophil oxidative burst Rel EC50 range, PMN from buffy coats, 40 min at RT, hydroethidine fluorescence; normalized to 5×10^−7 M PEP0005
Procedure: PMN's (polymorphonuclear leukocytes) were isolated and purified from fresh buffy coats by sequential sedimentation, density centrifugation and lysis of contaminating erythrocytes. Buffy coats were incubated with 2% methocel for 30-45 min to differentially sediment red blood cells. The leukocyte-rich supernatant was transferred to lymphoprep tubes to remove mononuclear cells by density centrifugation (400×g, 30 min). The pellet was resuspended and any remaining erythrocytes lysed using 0.2% NaCl for 30 sec before restoring isotonicity by the addition of 1.2% NaCl. This step was repeated until the cell pellet appears relatively free of red blood cells. Cells were resuspended in DPBS (Dulbecco's Phosphate Buffered Saline) (w.o. Ca^2+, Mg^2+) and the concentration adjusted to 1.4×10^6 cells/ml in HBSS (Hanks Balanced Salt solution) (w Ca^2+, Mg^2±) containing 0.1% BSA (Bovine Serum Albumin) and 5 mM glucose just prior to assay initiation. Titrated reference and test compounds were pre-mixed with HE (Hydroethidine) (10 μM final assay concentration) before addition to 96-well plates containing 2.5×10^5 cells. Following 40 min incubation at RT, changes in the respiratory burst was estimated by measuring fluorescence at 579 nm (excitation: 485 nm) using an Envision plate reader.
Test compound titration curves were fitted to a four-parameter sigmoidal curve after normalizing the effect of the test compound to the effect of the positive control (5×10^−7 M PEP0005). Rel EC50 denotes the concentration of test compound producing an effect that is midway between the fitted top and bottom. Abs EC50 is the concentration of test compound that provokes a response corresponding to 50% of the maximal effect associated with the positive control (5×10^−7 M PEP0005).

[2] = tested on: Primary human epidermal keratinocytes, HeKa; assay: HeKa cytokine release (IL-8); settings: Homo sapiens, HEKa, 6 h, read-out: HeKa cytokine release (IL-8) Rel EC50 range
Procedure: Primary human epidermal keratinocytes, HeKa, were seeded (10.000 cells/well) in 96-well plates the day before the assay. Test compounds were diluted in DMSO (dimethyl sulfoxide) and further diluted in assay medium and pipetted into wells of 96 well-plates containing HeKa cells. The plates were incubated for 6 h at 37° C. in humidified air with 5% CO2. Plates were centrifuged briefly to spin down cells at 4° C., the supernatant was removed and analysed by Meso Scale Discovery (MSD) 4-spot cytokine assay (Pro-inflammatory II Ultra Sensitive kit, MSD, MD, USA). The MSD assay employs a sandwich immunoassay format where capture antibodies are coated in a patterned array on the bottom of the wells of a 4-Spot-Multi-MSD plate. Standard samples were incubated in the MULTI-SPOT plates as well, and the cytokine (IL-8) binds to its corresponding capture antibody spot. The cytokine level was quantitated on a SECTOR™ Imager using a cytokine-specific Detection Antibody labelled with MSD SULFO-TAG™ reagent.
Test compound titration curves were fitted to a four-parameter sigmoidal curve after normalizing the effect of the test compound to the effect of the positive control (1.5×10^−7 M PEP0005). Rel EC50 denotes the concentration of test compound producing an effect that is midway between the fitted top and bottom.

HeLa cells = assay: Necrosis assay; settings: Homo sapiens, HeLa, 0.5 h, read-out: HeLa necrosis EC50 range
Procedure: HeLa cells (ATCC CCL-002) were grown in minimal essential medium (Invitrogen catalog no. 42360) containing 10% fetal bovine serum, 100 IU/ml penicillin and 100 μg/ml streptomycin. 4,000-6,000 cells were seeded into 96-well black ViewPlates-plates, clear bottom, (Perkin Elmer) in 100 μl medium and incubated overnight. Compounds were dissolved and pre-diluted in DMSO in 96-well polypropylene plates (Greiner) in a concentration range of 15 μM to 600 μM. At the time of the experiment cell plates were placed on heating blocks at 37° C., medium was removed and 40 μl fresh, pre-warmed medium was added per well. Cells were incubated for 15 min before addition of compounds. In parallel, 3 μl of compounds were diluted with 197 μl growth medium on a Tecan freedom-EVO pipetting station using 250 μl/s pipetting speed, in order to ensure effective mixing of the highly concentrated compound solutions with the aqueous phase. These pre-dilution plates were then equilibrated on heating blocks at 37° C. for 10 min. 80 μl pre-diluted compound were transferred manually to the corresponding wells containing HeLa cells yielding compound concentrations of 10 μM to 400 μM. Control conditions were 1% DMSO in growth medium (100% viability) and 400 μM ingenol mebutate in growth medium (0% viability). Plates were incubated on the heating blocks at 37° C. for 30 min. At the end of the incubation 10 μl PrestoBlue reagent (Invitrogen) were added to each well, plates were sealed with black seal, followed by incubation at 37° C. for 10 min with gentle shaking (150 rpm). Subsequently, plates were placed at room temperature for 20-30 min. Plates were read immediately after on an Envision Fluorescence reader (Perkin Elmer) with excitation at 535 nm and emission at 630 nm. Test compound titration curves were fitted to a four-parameter sigmoidal curve after normalizing the effect of the test compound to the effect of the positive control (4 10^−4 M PEP0005/ingenol mebutate). AbsEC50 denotes the concentration of test compound producing 50% effect.

`CC1=C[C@]23C(=O)[C@@H](C=C(CO)[C@@H](O)[C@]2(O)[C@H]1OC(=O)N1CCCC1C(F)(F)F)[C@H]1[C@@H](C[C@H]3C)C1(C)C` (single isomer, unassigned; isomer a) [Compound 740, Ingenol 3-(2-trifluoromethyl-pyrrolidine-1-carboxylate) (ISOMER A)] was tested, and the EC50 [1] was < 20 nM and the EC50 [2] was 20 to 100 nM.

With `CC1=C[C@]23C(=O)[C@@H](C=C(CO)[C@@H](O)[C@]2(O)[C@H]1OC(=O)c1cnnn1-c1ccccc1)[C@H]1[C@@H](C[C@H]3C)C1(C)C` [Compound 504, Ingenol 3-(3-phenyltriazole-4-carboxylate)] the EC50 [1] was 20 to 100 nM and the EC50 [2] was 20 to 100 nM.

For `CC1=C[C@]23C(=O)[C@@H](C=C(CO)[C@@H](O)[C@]2(O)[C@H]1OC(=O)c1cn(C)c2ccccc12)[C@H]1[C@@H](C[C@H]3C)C1(C)C` [Compound 509, Ingenol 3-(1-methylindole-3-carboxylate)], the EC50 [1] was < 20 nM and the EC50 [2] was < 20 nM.

`CC1=C[C@]23C(=O)[C@@H](C=C(CO)[C@@H](O)[C@]2(O)[C@H]1OC(=O)c1c(C(C)(C)C)noc1C)[C@H]1[C@@H](C[C@H]3C)C1(C)C` [Compound 549, Ingenol 3-(5-methyl-3-tert-butyl-isoxazole-4-carboxylate)] was tested, and the EC50 [1] was < 20 nM and the EC50 [2] was < 20 nM.

With `CC1=C[C@]23C(=O)[C@@H](C=C(CO)[C@@H](O)[C@]2(O)[C@H]1OC(=O)c1c(C)nn(C(C)(C)C)c1C)[C@H]1[C@@H](C[C@H]3C)C1(C)C` [Compound 551, Ingenol 3-(1-tert-butyl-3,5-dimethyl-pyrazole-4-carboxylate)] the EC50 [1] was < 20 nM and the EC50 [2] was < 20 nM.

Work on `CC1=C[C@]23C(=O)[C@@H](C=C(CO)[C@@H](O)[C@]2(O)[C@H]1OC(=O)c1noc(C)c1C)[C@H]1[C@@H](C[C@H]3C)C1(C)C` [Compound 569, Ingenol 3-(4,5-dimethylisoxazole-3-carboxylate)] yielded an EC50 (HeLa cells) of 150000 to 350000 nM and an EC50 [1] of 20 to 100 nM.

Compound `CC1=C[C@]23C(=O)[C@@H](C=C(CO)[C@@H](O)[C@]2(O)[C@H]1OC(=O)c1c(C)cc(=O)oc1C)[C@H]1[C@@H](C[C@H]3C)C1(C)C` [Compound 573, Ingenol 3-(2,4-dimethyl-6-oxo-pyran-3-carboxylate)] has an EC50 [1] of 20 to 100 nM and an EC50 [2] of 20 to 100 nM.

`CC1=C[C@]23C(=O)[C@@H](C=C(CO)[C@@H](O)[C@]2(O)[C@H]1OC(=O)N(C)C)[C@H]1[C@@H](C[C@H]3C)C1(C)C` [Compound 702, Ingenol 3-(N,N-dimethyl-carbamate)] was tested, and the EC50 [1] was 20 to 100 nM and the EC50 [2] was > 100 nM.

In the case of `CC1=C[C@]23C(=O)[C@@H](C=C(CO)[C@@H](O)[C@]2(O)[C@H]1OC(=O)N1CCOCC1)[C@H]1[C@@H](C[C@H]3C)C1(C)C` [Compound 703, Ingenol 3-(morpholine-4-carboxylate)], the EC50 [1] is reported as 20 to 100 nM and the EC50 [2] is reported as > 100 nM.

For `CC1=C[C@]23C(=O)[C@@H](C=C(CO)[C@@H](O)[C@]2(O)[C@H]1OC(=O)N1CCCC1)[C@H]1[C@@H](C[C@H]3C)C1(C)C` [Compound 704, Ingenol 3-(pyrrolidine-1-carboxylate)], the EC50 [1] was 20 to 100 nM and the EC50 [2] was > 100 nM.

`CC1=C[C@]23C(=O)[C@@H](C=C(CO)[C@@H](O)[C@]2(O)[C@H]1OC(=O)N(C)C(C)CC#N)[C@H]1[C@@H](C[C@H]3C)C1(C)C` (stereo partly shown) [Compound 715, Ingenol 3-(N-(2-cyano-1-methyl-ethyl)-N-methyl-carbamate)] was tested, and the EC50 (HeLa cells) was > 350000 nM and the EC50 [1] was > 100 nM.

For `CC1=C[C@]23C(=O)[C@@H](C=C(CO)[C@@H](O)[C@]2(O)[C@H]1OC(=O)N(C)c1cc(C)nn1C)[C@H]1[C@@H](C[C@H]3C)C1(C)C` [Compound 719, Ingenol 3-(N-(2,5-dimethylpyrazol-3-yl)-N-methyl-carbamate)], the EC50 (HeLa cells) was > 350000 nM and the EC50 [1] was > 100 nM.

`CC1=C[C@]23C(=O)[C@@H](C=C(CO)[C@@H](O)[C@]2(O)[C@H]1OC(=O)N1CCC(=O)c2ccccc21)[C@H]1[C@@H](C[C@H]3C)C1(C)C` [Compound 725, Ingenol 3-(4-oxo-2,3-dihydroquinoline-1-carboxylate)] was tested, and the EC50 (HeLa cells) was 150000 to 350000 nM and the EC50 [1] was < 20 nM.

In the case of `COc1ccccc1N(C)C(=O)O[C@H]1C(C)=C[C@]23C(=O)[C@@H](C=C(CO)[C@@H](O)[C@]12O)[C@H]1[C@@H](C[C@H]3C)C1(C)C` [Compound 731, Ingenol 3-(N-methyl-N-(2-methoxy-phenyl)-carbamate)], the EC50 (HeLa cells) is reported as 150000 to 350000 nM and the EC50 [1] is reported as 20 to 100 nM.

In the case of `CC1=C[C@]23C(=O)[C@@H](C=C(CO)[C@@H](O)[C@]2(O)[C@H]1OC(=O)N1CC(=O)Nc2ccccc21)[C@H]1[C@@H](C[C@H]3C)C1(C)C` [Compound 733, Ingenol 3-(3-oxo-2,4-dihydroquinoxaline-1-carboxylate)], the EC50 (HeLa cells) is reported as 150000 to 350000 nM and the EC50 [1] is reported as > 100 nM.

In the case of `CC1=C[C@]23C(=O)[C@@H](C=C(CO)[C@@H](O)[C@]2(O)[C@H]1OC(=O)N1CCCC1C(F)(F)F)[C@H]1[C@@H](C[C@H]3C)C1(C)C` (stereo partly shown) [Compound 735, Ingenol 3-(2-trifluoromethyl-pyrrolidine-1-carboxylate)], the EC50 (HeLa cells) is reported as 150000 to 350000 nM and the EC50 [1] is reported as < 20 nM.

In the case of `CC1=C[C@]23C(=O)[C@@H](C=C(CO)[C@@H](O)[C@]2(O)[C@H]1OC(=O)N(C)C1CCN(C(=O)OC(C)(C)C)CC1)[C@H]1[C@@H](C[C@H]3C)C1(C)C` [Compound 742, Ingenol 3-(N-methyl-N—(N-(tert-butyloxycarbonyl)-4-piperidyl)-carbamate)], the EC50 (HeLa cells) is reported as 150000 to 350000 nM and the EC50 [1] is reported as 20 to 100 nM.

`CC1=C[C@]23C(=O)[C@@H](C=C(CO)[C@@H](O)[C@]2(O)[C@H]1OC(=O)N(C)C1CCC1)[C@H]1[C@@H](C[C@H]3C)C1(C)C` [Compound 749, Ingenol 3-(N-cyclobutyl-N-methyl-carbamate)] was tested, and the EC50 (HeLa cells) was > 350000 nM and the EC50 [1] was < 20 nM.

`C=CCN(C)C(=O)O[C@H]1C(C)=C[C@]23C(=O)[C@@H](C=C(CO)[C@@H](O)[C@]12O)[C@H]1[C@@H](C[C@H]3C)C1(C)C` [Compound 750, Ingenol 3-(N-allyl-N-methyl-carbamate)] was tested, and the EC50 (HeLa cells) was > 350000 nM and the EC50 [1] was < 20 nM.

With `C#CCN(C)C(=O)O[C@H]1C(C)=C[C@]23C(=O)[C@@H](C=C(CO)[C@@H](O)[C@]12O)[C@H]1[C@@H](C[C@H]3C)C1(C)C` [Compound 751, Ingenol 3-(N-methyl-N-prop-2-ynyl-carbamate)] the EC50 (HeLa cells) was > 350000 nM and the EC50 [1] was 20 to 100 nM.
